The results in this text go back to patent US4119667A, “Haloaniline derivatives as plant growth modifiers” (Rohm and Haas Company, priority 1974, dated 1978).

The test system of the series is soybean (Var. Clark). In words: greenhouse growth regulator test on soybean (Table I). To be noted: two weeks after application; for Injury (0-10): 0-10 scale, 0 = no effect, 10 = complete kill; for pest or weed control / pest or weed control at 2241.7 g/ha: Glycine max, foliar, 336 h, read-out: Height (% inhib.); for pest or weed control / pest or weed control at 2241.7 g/ha / Height (% inhib.): relative to control. Type of series: in vivo. From the text:
Limited greenhouse experiments shown that there is promotion of lateral bud growth when compounds are applied at higher concentrations and earlier timings and an increase in soybean pod numbers at lower rates applied just prior to or at the flowering stage. […] Three parameters are reported in Table I to indicate the general spectrum of activity for each evaluated compound including the propensity for releasing lateral bud growth in soybeans. These are: (a) plant height measured as percent inhibition relative to the control; (b) the number of lateral buds per plant; and (c) phytotoxic injury on a scale of 0 to 10 (10 being maximum injury). Sampling compounds were evaluated in the greenhouse in a special growth regulator test. Four to five soybean seeds (Var. Clark) were planted in 4-inch pots with a humus-soil mixture. Two weeks after planting, two uniform plants were selected from each pot for treatment. The candidate compounds were dissolved in acetone-water (1:1), and applied as a foliar spray in a carrier volume of 50 gallons per acre, using a moving belt sprayer at a rate of 1/4, 1/2 and 2 lbs/acre. Six plants were used for each treatment. Two weeks after application, the number of laterals per plant, plant injury (0-10 scale; 0 = no effect, 10 = complete kill,) and the height of each plant were recorded. Untreated plants were used as controls.

Where two headings read alike, the source gives them in different places.

In the case of `Brc1cc(Br)cc(NCNc2cc(Br)cc(Br)c2)c1` [III, n,n'-bis[3,5-dibromophenyl]methanediamine], the “No. Laterals per plant” value turned out to be 0 (1/2 lbs/acre foliar spray), 0 (1/4 lbs/acre foliar spray) and 3 (2 lbs/acre foliar spray). Besides, the “Injury (0-10)” value (1/2 lbs/acre) stood at 1, the “Injury (0-10)” value (1/4 lbs/acre) was 1 and the “Injury (0-10)” value (2 lbs/acre) was 1. For the same compound, the pest or weed control reads like this: (1/2 lbs/acre foliar spray) 2%; (1/4 lbs/acre foliar spray) 0%. The pest or weed control at 2241.7 g/ha (2 lbs/acre foliar spray) is 0%.
On to `Clc1ccc(NCNc2ccc(Cl)c(Cl)c2)cc1Cl` [II, n,n'-bis[3,4-dichlorophenyl]methanediamine], for which the “No. Laterals per plant” value is, setting by setting: (1/2 lbs/acre foliar spray) 0; (1/4 lbs/acre foliar spray) 2; (2 lbs/acre foliar spray) 5. The “Injury (0-10)” value amounted to 2 (1/2 lbs/acre), 3 (1/4 lbs/acre) and 2 (2 lbs/acre). Also, the pest or weed control runs as follows: (1/2 lbs/acre foliar spray) 15%; (1/4 lbs/acre foliar spray) 20%. The pest or weed control at 2241.7 g/ha (2 lbs/acre foliar spray) was 7%.
With `Clc1ccc(C=Nc2cc(Cl)cc(Cl)c2)cc1` [VII, 3,5-dichloro-N-(4-chlorobenzylidene)aniline], the “No. Laterals per plant” value runs as follows: (1/2 lbs/acre foliar spray) 4; (1/4 lbs/acre foliar spray) 2; (2 lbs/acre foliar spray) 5. Further, the “Injury (0-10)” value runs as follows: (1/2 lbs/acre) 0; (1/4 lbs/acre) 0; (2 lbs/acre) 0. Further, the pest or weed control (1/2 lbs/acre foliar spray) turned out to be 9%. Under “2 lbs/acre foliar spray”, the pest or weed control at 2241.7 g/ha stood at 13%.
With `Clc1cccc(C=Nc2cc(Cl)cc(Cl)c2)c1` [VI, 3,5-dichloro-N-(3-chlorobenzylidene)aniline], the “No. Laterals per plant” value (1/2 lbs/acre foliar spray) is reported as 3, the “No. Laterals per plant” value (1/4 lbs/acre foliar spray) came to 2 and the “No. Laterals per plant” value (2 lbs/acre foliar spray) is 5. For the same compound, the “Injury (0-10)” value (1/2 lbs/acre) stood at 1, the “Injury (0-10)” value (1/4 lbs/acre) is recorded as 2 and the “Injury (0-10)” value (2 lbs/acre) amounted to 1. For the setting “1/2 lbs/acre foliar spray”, the pest or weed control is 21%. Under “2 lbs/acre foliar spray”, the pest or weed control at 2241.7 g/ha was 13%.
`O=CNc1ccc(Cl)c(Cl)c1` [XIX, 3',4'-dichloroformanilide]: the “No. Laterals per plant” value (1/2 lbs/acre foliar spray) is given as 0, the “No. Laterals per plant” value (1/4 lbs/acre foliar spray) is reported as 5 and the “No. Laterals per plant” value (2 lbs/acre foliar spray) is 4. Also, the “Injury (0-10)” value runs as follows: (1/2 lbs/acre) 0; (1/4 lbs/acre) 1; (2 lbs/acre) 3. In addition, the pest or weed control by setting is: (1/2 lbs/acre foliar spray) 0%; (1/4 lbs/acre foliar spray) 2%. For the same compound, where the note is “2 lbs/acre foliar spray”, the pest or weed control at 2241.7 g/ha amounted to 13%.
On to `CCOC=Nc1ccc(Cl)c(Cl)c1` [XVII, ethyl N-(3,4-dichlorophenyl)formimidate], for which the “No. Laterals per plant” value is, setting by setting: (1/2 lbs/acre foliar spray) 0; (1/4 lbs/acre foliar spray) 2; (2 lbs/acre foliar spray) 4. Also, the “Injury (0-10)” value reads like this: (1/2 lbs/acre) 1; (1/4 lbs/acre) 2; (2 lbs/acre) 6. The pest or weed control (1/4 lbs/acre foliar spray) was 24%. Moreover, where the note is “2 lbs/acre foliar spray”, the pest or weed control at 2241.7 g/ha was 34%.
Take `Clc1ccc(N=Cc2ccccc2Cl)cc1Cl` [IX, 3,4-dichloro-N-(2-chlorobenzylidene)aniline]: the “No. Laterals per plant” value reads like this: (1/2 lbs/acre foliar spray) 4; (1/4 lbs/acre foliar spray) 0; (2 lbs/acre foliar spray) 4. Further, the “Injury (0-10)” value is, setting by setting: (1/2 lbs/acre) 0; (1/4 lbs/acre) 0; (2 lbs/acre) 2. Further, the pest or weed control by setting is: (1/2 lbs/acre foliar spray) 23%; (1/4 lbs/acre foliar spray) 0%. For the setting “2 lbs/acre foliar spray”, the pest or weed control at 2241.7 g/ha is 12%.
As for `Cl.Clc1cc(Cl)cc(N=CNc2cc(Cl)cc(Cl)c2)c1` [XX, N,N'-Bis[3,5-dichlorophenyl]formamidine hydrochloride], the “No. Laterals per plant” value by setting is: (1/2 lbs/acre foliar spray) 4; (1/4 lbs/acre foliar spray) 2; (2 lbs/acre foliar spray) 6. Also, the “Height (% inhib.)” value (1/2 lbs/acre foliar spray) is 19 % inhib, the “Height (% inhib.)” value (1/4 lbs/acre foliar spray) worked out at 10 % inhib and the “Height (% inhib.)” value (2 lbs/acre foliar spray) came to 44 % inhib. For the same compound, the “Injury (0-10)” value by setting is: (1/2 lbs/acre) 2; (1/4 lbs/acre) 2; (2 lbs/acre) 0.
Regarding `CCOC=Nc1cc(Cl)cc(Cl)c1` [XVI, Ethyl N-(3,5-dichlorophenyl)formimidate], the “No. Laterals per plant” value was determined as 4 (1/2 lbs/acre foliar spray), 2 (1/4 lbs/acre foliar spray) and 5 (2 lbs/acre foliar spray). For the same compound, the “Injury (0-10)” value reads like this: (1/2 lbs/acre) 1; (1/4 lbs/acre) 1; (2 lbs/acre) 2. The pest or weed control reads like this: (1/2 lbs/acre foliar spray) 2%; (1/4 lbs/acre foliar spray) 0%. The pest or weed control at 2241.7 g/ha (2 lbs/acre foliar spray) is 22%.
With `Clc1cc(Cl)cc(N=Cc2ccccc2Cl)c1` [V, 3,5-dichloro-N-(2-chlorobenzylidine)aniline], the “No. Laterals per plant” value by setting is: (1/2 lbs/acre foliar spray) 3; (1/4 lbs/acre foliar spray) 2; (2 lbs/acre foliar spray) 5. The “Injury (0-10)” value (1/2 lbs/acre) was 0, the “Injury (0-10)” value (1/4 lbs/acre) stood at 0 and the “Injury (0-10)” value (2 lbs/acre) stood at 0. The pest or weed control (1/2 lbs/acre foliar spray) worked out at 8% and the pest or weed control (1/4 lbs/acre foliar spray) stood at 1%. Further, the pest or weed control at 2241.7 g/ha (2 lbs/acre foliar spray) stood at 13%.
Regarding `Clc1ccc(N=Cc2c(Cl)cccc2Cl)cc1Cl` [XII, 3,4-dichloro-N-(2,6-dichlorobenzylidene)aniline], the “No. Laterals per plant” value by setting is: (1/2 lbs/acre foliar spray) 2; (1/4 lbs/acre foliar spray) 1; (2 lbs/acre foliar spray) 6. Further, the “Injury (0-10)” value reads like this: (1/2 lbs/acre) 1; (1/4 lbs/acre) 1; (2 lbs/acre) 1. Further, the pest or weed control (1/4 lbs/acre foliar spray) was 5%. Further, where the note is “2 lbs/acre foliar spray”, the pest or weed control at 2241.7 g/ha amounted to 18%.
As to `Clc1cc(Cl)cc(N=Cc2c(Cl)cccc2Cl)c1` [VIII, 3,5-dichloro-N-(2,6-dichlorobenzylidene)aniline], the “No. Laterals per plant” value turned out to be 2 (1/2 lbs/acre foliar spray), 0 (1/4 lbs/acre foliar spray) and 5 (2 lbs/acre foliar spray). In addition, the “Injury (0-10)” value was found to be 0 (1/2 lbs/acre), 0 (1/4 lbs/acre) and 0 (2 lbs/acre). Further, the pest or weed control is, setting by setting: (1/2 lbs/acre foliar spray) 7%; (1/4 lbs/acre foliar spray) 1%. For the same compound, for the setting “2 lbs/acre foliar spray”, the pest or weed control at 2241.7 g/ha amounted to 15%.
Turning to `Clc1cccc(C=Nc2ccc(Cl)c(Cl)c2)c1` [X, 3,4-dichloro-N-(3-chlorobenzylidene)aniline], the “No. Laterals per plant” value is, setting by setting: (1/2 lbs/acre foliar spray) 3; (1/4 lbs/acre foliar spray) 1; (2 lbs/acre foliar spray) 3. Further, the “Injury (0-10)” value (1/2 lbs/acre) was 1, the “Injury (0-10)” value (1/4 lbs/acre) turned out to be 0 and the “Injury (0-10)” value (2 lbs/acre) is 3. In addition, the pest or weed control came to 14% (1/2 lbs/acre foliar spray) and 9% (1/4 lbs/acre foliar spray). In addition, the pest or weed control at 2241.7 g/ha (2 lbs/acre foliar spray) stood at 13%.
`Clc1ccc(N=CNc2ccc(Cl)c(Cl)c2)cc1Cl` [XV, n,n'-bis[3,4-dichlorophenyl]formamidine]: the “No. Laterals per plant” value is 2 (1/2 lbs/acre foliar spray), 2 (1/4 lbs/acre foliar spray) and 2 (2 lbs/acre foliar spray). The “Height (% inhib.)” value by setting is: (1/2 lbs/acre foliar spray) 15 % inhib; (1/4 lbs/acre foliar spray) 23 % inhib; (2 lbs/acre foliar spray) 4 % inhib. In addition, the “Injury (0-10)” value came out at 2 (1/2 lbs/acre), 2 (1/4 lbs/acre) and 1 (2 lbs/acre).
